US10488417B2, “Compounds for use as imaging agents” (United Arab Emirates University, priority 2014, dated 2019)

Legend:
[1] = target: T1, α-synuclein (Homo sapiens, UniProt P37840); test: Transmission electron microscopy of α-synuclein aged with compounds; assay type: biochemical; conditions: 25 μM α-synuclein, 5 days, molar ratios 4:1, 2:1, 1:1
T1 construct: GST (N, cleaved yes); made in house; host or cells: E. coli BL21
Description: Electron images were produced from α-synuclein aged alone or in the presence of the compounds. The samples (5 μL) were deposited on Formvar-coated 400-mesh copper grids (Agar Scientific, UK), fixed briefly with 0.5% glutaraldehyde (5 μL), negatively stained with 2% uranyl acetate (Sigma-Aldrich, USA) and examined with a Philips CM-10 TEM electron microscope.

[2] = target: T1, α-synuclein; test: α-synuclein oligomerization by immunoblot analysis; assay type: biochemical; conditions: compound: α-syn molar ratios 1:1, 2:1, 4:1; 5 days
Description: Samples of α-synuclein (20 ng) incubated alone or with the compounds were mixed with 1× sample buffer (250 mM Tris-HCl, pH 6.8, 30% glycerol, 0.02% bromophenol blue) and then separated in 15% 1 mm SDS-PAGE gels. The separated proteins were transferred to 0.45 μm nitrocellulose membranes (Whatman Gmbh-Germany) at 90 V for 80 min. The membranes were boiled for 5 min in PBS and then blocked for 1 hour with 5% non-fat milk prepared in PBS-Tween-20 (0.05%; PBST). The membranes were incubated overnight at 4° C. with the primary mouse monoclonal anti-α-syn (211) antibody, which recognizes human α-synuclein (121-125) (Santa Cruz Biotechnology, USA), at a dilution of 1:1000. The membranes were then washed several times with PBST, followed by incubation with an HRP-conjugated goat anti-mouse antibody (Dako Ltd., Ely, UK) at a dilution of 1:70,000 for 60 minutes at room temperature with gentle agitation. The membranes were then extensively washed for 25 min, and immunoreactive bands were visualized with the Super Signal West Femto Chemiluminescent Substrate Kit (Pierce, Rockford, USA) according to the manufacturer's instructions.
The effect of Gn Rb1, salvianolic acid B and dihydromyricetin on α-synuclein oligomerization was assessed by immunoblot analysis. Fresh and aged solutions of α-synuclein alone or in the presence of Gn Rb1, salvianolic acid B or dihydromyricetin were analyzed. Samples were separated in 15% SDS gels, transferred onto a nitrocellulose membrane and probed with an antibody that recognizes the amino acid residues 121-125 of α-synuclein. The majority of freshly prepared α-synuclein migrated as a band at ˜16 KDa, corresponding to α-synuclein monomers (FIGS. 4A-C).
The amount of monomeric α-synuclein in the α-synuclein aged alone samples and in the presence of compounds was quantified against a fresh α-synuclein sample that contained only the monomeric species using ImageJ software.

[3] = test system: BE(2)-M17 human neuroblastoma cells; test: α-synuclein-induced cytotoxicity, MTT cell viability; assay type: cell-based
Description: BE(2)-M17 human neuroblastoma cells were routinely cultured in Dulbecco's MEM/Nutrient Mix F-12 (1:1) (Gibco BRL, Rockville, Md.) containing 15% fetal bovine serum and 1% penicillin-streptomycin (P/S; 100 U/ml penicillin, […]). The cells were maintained at 37° C. in a humidified incubator with 5% CO2/95% air.
BE(2)-M17 cells suspended in DMEM medium were plated at a density of 15,000 cells (100 μL/well) in a 96-well plate. After 24 hours, the medium was replaced with 200 μL of OPTI-MEM (Gibco-USA) serum-free medium containing aged α-synuclein solutions with or without the compounds. Aged α-synuclein and compound-containing solutions were diluted in OPTI-MEM to obtain the desired concentration. Cells were then incubated at 37° C. in 5% CO2 for 48 hours. A total of 20 μL of MTT (3-(4,5-dimethylthiazol-2-yl)-2,5-diphenyltetrazolium bromide) (Sigma-Aldrich, USA) (6 mg/ml) in PBS was dispensed into each well, and the plate was incubated at 37° C. for 4.5 hours. The MTT-containing medium was carefully removed, and 100 μL of lysis buffer (15% SDS, 50% N,N-dimethylformamide, pH 4.7) was added to each well. The lysis buffer was incubated overnight at 37° C. before the absorbance values at 590 nm were determined by a microplate reader (Perkin Elmer).
BE(2)-M17 human neuroblastoma cells were treated with aged α-synuclein solutions at three different concentrations, 0.5 μM, 1 μM and 5 μM, either alone or in the presence of Gn Rb1, salvianolic acid B or dihydromyricetin.
The viability of cells treated with α-synuclein aged in the presence or absence of the Gn Rb1, salvianolic acid B or dihydromyricetin was determined by the MTT assay. Prior to the experiments, the effect of the Gn Rb1, salvianolic acid B and dihydromyricetin alone on cell viability was assessed (data not shown), employing the same non-toxic Gn Rb1, salvianolic acid B and dihydromyricetin concentrations that were later employed for the experiments with aged α-synuclein.

[4] = target: T1, α-synuclein; test: Seeding polymerization assay of α-synuclein monomers (Th-T, TEM); assay type: biochemical; conditions: for inhibition of the seeding process / inhibition at 50 µM: 6 hours, 100 μM monomeric α-synuclein, 2 μM seeds; for inhibition at 50 µM: read-out: inhibition of the seeding process
Description: The aggregation of monomeric α-synuclein with or without seeding was performed as described elsewhere. The seeds were prepared by fragmenting the mature α-synuclein fibrils by sonication to obtain short fibrils, which were employed as ‘seeds’. Briefly, monomeric α-synuclein at a concentration of 100 μM was seeded with 2 μM of seeds and incubated in the presence or absence of the compounds (10 μM or 50 μM) at 37° C. for 6 hours with continuous shaking. The fibrillization was monitored by Th-T binding assay as described above.
To assess the effect of salvianolic acid B, dihydromyricetin and Gn Rb1 on the seeding of α-synuclein aggregation, the compounds were added at concentrations of 10 or 50 μM to 100 μM monomeric α-synuclein containing seeds at a final concentration of 2 μM. The mixture was then incubated with continuous mixing at 37° C. for 6 hours.

[5] = 5 μM aged α-synuclein, all concentrations of compound, 48 hours, MTT

Q: What does the source list for `O=C(/C=C/c1ccc(O)c2c1[C@H](C(=O)O[C@H](Cc1ccc(O)c(O)c1)C(=O)O)[C@@H](c1ccc(O)c(O)c1)O2)O[C@H](Cc1ccc(O)c(O)c1)C(=O)O` [salvianolic acid B]?
A: TEM appearance of α-synuclein aged in the presence of compound [1]: thin, short rod-like fibrils, with a fragmented appearance; effect on α-synuclein oligomerization (immunoblot, densitometry) [2]: inhibited α-synuclein oligomerization in a dose-dependent fashion; cells survived ([3]; α-synuclein aged with compound at molar ratios of 4:1 and 2:1, MTT): approximately 95%; inhibition of the seeding process ([4]; compound 10 μM): to a smaller extent; inhibition at 50 µM ([4]; compound 50 μM): ~90%

Q: Which results are given for `CC(C)=CCC[C@](C)(O[C@@H]1O[C@H](CO[C@@H]2O[C@H](CO)[C@@H](O)[C@H](O)[C@H]2O)[C@@H](O)[C@H](O)[C@H]1O)[C@H]1CC[C@]2(C)[C@@H]1[C@H](O)C[C@@H]1[C@@]3(C)CC[C@H](O[C@@H]4O[C@H](CO)[C@@H](O)[C@H](O)[C@H]4O[C@@H]4O[C@H](CO)[C@@H](O)[C@H](O)[C@H]4O)C(C)(C)[C@@H]3CC[C@]12C` [Gn Rb1, ginsenoside Rb1]?
A: TEM appearance of α-synuclein aged in the presence of compound [1]: thin, short rod-like fibrils, with a fragmented appearance; effect on α-synuclein oligomerization (immunoblot, densitometry) [2]: potent inhibitor of α-synuclein oligomerization at all molar ratios; improvement of viability of the cells ([3]; 1 μM aged α-synuclein, all used concentrations of compound, MTT): approximately 30%; cells surviving [3, 5]: approximately 80%; increase in viability of the cells [3, 5]: approximately 30%; TEM appearance of seeded α-synuclein with compound ([4]; after 6 h of incubation, compound 50 μM): mostly globular forms of α-synuclein; inhibition of the seeding process ([4]; compound 10 μM): approximately 60%; inhibition of the seeding process ([4]; compound 50 μM): approximately 90%

Q: Which results are given for `O=C1c2c(O)cc(O)cc2O[C@H](c2cc(O)c(O)c(O)c2)[C@H]1O` [dihydromyricetin]?
A: TEM appearance of α-synuclein aged in the presence of compound [1]: thin, short rod-like fibrils, with a fragmented appearance; effect on α-synuclein oligomerization (immunoblot, densitometry) [2]: inhibited α-synuclein oligomerization in a dose-dependent fashion; improvement of cell viability ([3]; highest concentration, molar ratio of 4:1, MTT): approximately 10%; inhibition of the seeding process ([4]; compound 10 μM): showed an inhibitory effect; inhibition at 50 µM ([4]; compound 50 μM): ~90%
